Laboratory results reported in US10807948B2, “Aromatic compounds and uses thereof” (PELOTON THERAPEUTICS, INC., priority 2015, dated 2020).
“Also recorded” adds a separate entry of the source.

Columns and labels:
[1] = target: T1, HIF-2α HIS TAG-PASB Domain (Homo sapiens, UniProt Q99814); test: HIF-2α Scintillation Proximity Assay (SPA); assay type: binding; details: displacement of tritiated probe from HIF-2α PASB domain
T1 construct: 100 nM HIF-2α HIS TAG-PASB Domain
Description: The total assay volume was about 100 μL in the following configuration: 2 μL compound in 100% DMSO, 88 μL buffer with protein and probe and 10 μL of SPA beads. […] The percent inhibition was determined and IC50 values were calculated using the Dotmatics system based on the following equation: % inhibition=[(high control−sample)/(high control−low control)]×100.

786-O-Hif-Luc cells = test: Luciferase Assay; assay type: cell-based; details: about 24 hours
Description: 786-O-Hif-Luc single clone cells were obtained by infecting 786-O cells (ATCC® CRL-1932™) with commercial lentivirus that delivers a luciferase gene driven by multiple HIF responsive elements (Cignal Lenti HIF Reporter (luc): CLS-007L, Qiagen) at Multiplicity of Infection (MOI) of 25 for 24 hours. […] A pool of infected cells were then selected against 2 μg/mL of puromycin (P8833, Sigma) for 10 days followed by limited dilution to select single clones. […] For the luciferase assay, about 7500 786-O-Hif-Luc cells in 90 μL growth medium were seeded into each well of a 96-well white opaque plate (08-771-26, Fisher scientific) a day before treatment with the layout presented in FIG. 5.
Each concentration was tested in triplicate. After about 24 hours, luciferase activity was determined using ONE-Glo Luciferase Assay Reagent (E6110, Promega) following the manufacturer's recommended procedure. EC50 were calculated using Dotmatics software.

[2] = tested on: renal cell carcinoma 786-O xenograft; test: In vivo PK/PD study: mRNA levels of genes in tumor by qRT-PCR; parameters: species or system SCID/Biege mice; details: 3 mg/kg oral gavage, six times at 12 hour intervals; 12 hours post last dose
Description: (§1) About 5×10^6 renal cell carcinoma 786-O tumor cells (ATCC® CRL-1932™, VHL and HIF-1α null cell line) in PBS and Matrigel (1:1 in volume) were injected subcutaneously at the right flanks of SCID/Biege mice at 6-7 weeks of age for xenograft development. When the xenografts reached about 400 mm^3 in size, the tumor bearing mice were randomly divided into 2 groups (n=3). Plasma was collected prior to treatment by retro-orbital bleeding. The animals were treated with either vehicle or Compound 95 at 3 mg/kg by oral gavage (six times at 12 hour intervals). All animals were sacrificed at 12 hours post last dose. Tumor, kidney, and plasma samples were collected from each animal. Total RNA was extracted from the tumors and kidneys. The mRNA levels of several genes were determined by qRT-PCR (FIG. 1).
Total RNA was extracted from the tumors, and the expressions of putative HIF-1α and HIF-2α regulated genes were determined by qRT-PCR.

[3] = tested on: renal cell carcinoma 786-O xenograft; test: In vivo PK/PD study: human VEGFA in plasma by ELISA; parameters: species or system SCID/Biege mice; details: 3 mg/kg oral gavage, six times at 12 hour intervals
Description: as §1
The level of human VEGFA was determined by ELISA assay.

[4] = tested on: renal cell carcinoma 786-O xenograft; test: In vivo efficacy study, 786-O xenograft; parameters: species or system SCID/Biege mouse; details: for Tumor size (mm^3) Mean ± SEM: after 28 days of dosing
786-O cells = test: VEGF ELISA Assay; assay type: cell-based; details: Homo sapiens, 786-0, VEGF concentration in cell culture medium
Description: About 7500 786-0 cells in 180 μL of growth medium were seeded into each well of a 96-well, white, clear bottom plate (07-200-566, Fisher Scientific) on day one in the layout presented in FIG. 3.
Each concentration was plated in duplicate. About 20 hours later, medium was removed by suction and each well was supplied with 180 μL of growth medium. About 20 μL freshly-made 10× compound stocks were added to each well. […] The EC50 was calculated by GraphPad Prism using the dose-response-inhibition (four parameter) equation. The cell-seeded plate was then subjected to CellTiter-Glo luminescence cell viability assay (Promega) by adding 50 μL of Celltiter Glo reagent into each well and shaking the plate for 8 minutes at 550 rpm (Thermomixer R, Eppendorf) then the luminescence signal immediately read in a plate reader (3 second delay, 0.5 second/well integration time, Synergy 2 multi Detection Microplate reader).

T1 sequence (Q99814 239-348): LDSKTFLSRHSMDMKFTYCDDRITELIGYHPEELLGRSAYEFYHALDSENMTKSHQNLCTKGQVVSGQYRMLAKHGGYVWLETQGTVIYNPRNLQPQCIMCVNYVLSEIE

| SMILES | IC50 [1] [nM] | EC50 (786-O-Hif-Luc cells) [nM] | also measured |
| --- | --- | --- | --- |
| CS(=O)(=O)c1ccc(OC2CC(F)(F)C2)c2c1[C@H](O)[C@H](F)[C@@H]2F (racemic) [Compound 98, (racemic)-4-(3,3-difluorocyclobutoxy)-2,3-difluoro-7-(methylsulfonyl)-2,3-dihydro-1H-inden-1-ol] | < 50 | – | – |
| O=S(=O)(CF)c1ccc(OC2CC(F)(F)C2)c2c1[C@H](O)[C@H](F)[C@@H]2F (racemic) [Compound 99, (racemic)-4-(3,3-difluorocyclobutoxy)-2,3-difluoro-7-((fluoromethyl)sulfonyl)-2,3-dihydro-1H-inden-1-ol] | < 50 | – | – |
| N#Cc1cncc(-c2ccc(S(=O)(=O)C(F)(F)F)c3c2CC(F)(F)C3O)c1 (stereo not drawn) [Compound 91] | > 1000 | > 1000 | – |
| O=S(=O)(c1ccc(OCC2(F)COC2)c2c1[C@H](O)C(F)(F)C2)C(F)(F)F [Compound 94, (S)-2,2-difluoro-4-((3-fluorooxetan-3-yl)methoxy)-7-((trifluoromethyl)sulfonyl)-2,3-dihydro-1H-inden-1-ol] | – | < 50 | – |
| CS(=O)(=O)c1ccc(OC2CC(F)(F)C2)c2c1[C@H](O)C(F)(F)[C@@H]2F [Compound 95, (1S,3R)-4-(3,3-difluorocyclobutoxy)-2,2,3-trifluoro-7-(methylsulfonyl)-2,3-dihydro-1H-inden-1-ol] | – | – | CCND1 mRNA level in tumor [2]: significant reduction; also recorded: reduced; GLUT1 mRNA level in tumor [2]: significant reduction; also recorded: reduced; PAI-1 mRNA level in tumor [2]: significant reduction; also recorded: reduced; PGK1 mRNA level in tumor (HIF-1α specific target gene) [2]: no significant change; also recorded: no significant effect; VEGFA mRNA level in tumor [2]: significant reduction; also recorded: reduced; human VEGFA plasma level [3]: significant reduction; also recorded: reduced; Tumor size (mm^3) Mean ± SEM ([4]; 1 mg/kg QD): 525.72 mm^3; Tumor size (mm^3) Mean ± SEM ([4]; 3 mg/kg QD): 154.52 mm^3; Tumor size (mm^3) Mean ± SEM ([4]; 10 mg/kg QD): 89.45 mm^3; effect on tumor growth / tumor sizes ([4]; 1, 3 and 10 mg/kg QD for 28 days, single agent): statistically significant reduction of tumor sizes for all treatment groups; also recorded: tumor growth inhibition and regression |
| O=S(=O)(CF)c1ccc(OC2CC(F)(F)C2)c2c1[C@H](O)C(F)(F)[C@@H]2F [Compound 97, (1S,3R)-4-(3,3-difluorocyclobutoxy)-2,2,3-trifluoro-7-((fluoromethyl)sulfonyl)-2,3-dihydro-1H-inden-1-ol] | – | – | EC50 (786-O cells): < 50 nM |
| O[C@H]1c2c(C(F)(F)F)ccc(OC3CC(F)(F)C3)c2CC1(F)F [Compound 109] | – | < 50 | EC50 (786-O cells): < 50 nM |
| CCOc1ccc(S(=O)(=O)C(F)(F)F)c2c1CC(F)(F)C2O (stereo not drawn) [Compound 113] | 50 to 249 | – | – |
| N#CC1(COc2ccc(S(=O)(=O)C(F)(F)F)c3c2CC(F)(F)C3O)CC1 (stereo not drawn) [Compound 142] | < 50 | – | – |
| CC1CC(Oc2ccc(S(=O)(=O)C(F)(F)F)c3c2CC(F)(F)C3O)CCO1 (stereo not drawn) [Compound 148] | – | < 50 | – |
| COC[C@@H](C)Oc1ccc(S(=O)(=O)C(F)(F)F)c2c1CC(F)(F)[C@H]2O [Compound 184] | – | < 50 | – |
| FC(F)COc1ccc(C(F)(F)F)c2c1CC(F)(F)C2F (stereo not drawn) [Compound 214] | > 1000 | – | – |
| OC1c2c(OCC(F)F)ccc(C(F)(F)F)c2C(F)C1(F)F (stereo not drawn) [Compound 215] | > 1000 | – | – |
| OC1c2c(C(F)(F)F)ccc(OCC(F)F)c2CC1F (stereo not drawn) [Compound 221] | 50 to 249 | 50 to 249 | – |
| CO[C@H]1C[C@H](Oc2ccc(S(=O)(=O)C(F)(F)F)c3c2CC(F)(F)[C@H]3O)C1 [Compound 239] | < 50 | – | – |
| CS(=O)(=O)c1ccc(O[C@H]2C[C@H](F)C2)c2c1[C@H](O)C(F)(F)[C@@H]2F [Compound 261] | – | < 50 | – |
| CS(=O)(=O)c1ccc(OC2CCC2)c2c1[C@H](O)C(F)(F)[C@@H]2F [Compound 281] | – | 50 to 249 | – |
| CS(=O)(=O)c1ccc(OCC2CC(F)(F)C2)c2c1[C@H](O)C(F)(F)[C@@H]2F [Compound 287] | < 50 | – | – |
